In patent US11466016B2, “Pharmaceutical compounds” (priority 2018, dated 2022):
Where a name gives a salt, the structure may show the parent alone.

What was measured:
SHP2 = SHP2 (Homo sapiens (Human), UniProt Q06124); assay: SHP2 Biochemical Assay (DiFMUP conversion, pIRS1 activating peptide); conditions: DiFMUP substrate, 0.25 μM pIRS1 peptide, 30 min pre-incubation; average where more than one data point; read-out: SHP2 (IC50)
pERK in HCC827 cells = assay: Cellular pERK Inhibition Assay (phospho-p44/42 MAPK sandwich ELISA); format: cell-based
Method: Cellular pERK Inhibition Assay
HCC827 cells (ATCC, Manassas, USA) were seeded into 96-well plates at a density of 1×10^5 cells/well in RPMI medium supplemented with 10% FBS and incubated 24 h. Compounds were diluted first in DMSO and then into serum-free medium, before being added to cells in triplicate to give a final concentration of 0.1% DMSO. Plates were incubated at 37° C. for 0.5 hours in a humidified atmosphere of 5% CO2 in air.
Following compound treatment, medium was removed and cells were lysed by adding 50 μL of lysis buffer (Cell Signalling Technology, Beverly, USA) to each well. Plates were then incubated at room temperature for 25 minutes with shaking. pERK levels were measured in lysates using the PathScan® phospho-p44/42 MAPK (Thr202/Tyr204) sandwich ELISA (Cell Signalling Technology, Beverly, USA) as per kit instructions. Briefly, 50 μL of cell lysate was added to 50 μL of ELISA sample diluent in a 96-well ELISA plate and incubated overnight at 4° C. Following washing, 100 μL of detection antibody was added per well and the plates incubated for 1 hour at 37° C. […] Plates were read at 450 nm on a SpectraMax Gemini reader (Molecular Devices, Uckfield, UK).
The average signal from blank wells (no cells added) was subtracted from the signals from each sample well. Levels of pERK were then expressed as “percent of control”, using DMSO treated samples as control. […]

SHP2, sequence (Q06124 whole entry): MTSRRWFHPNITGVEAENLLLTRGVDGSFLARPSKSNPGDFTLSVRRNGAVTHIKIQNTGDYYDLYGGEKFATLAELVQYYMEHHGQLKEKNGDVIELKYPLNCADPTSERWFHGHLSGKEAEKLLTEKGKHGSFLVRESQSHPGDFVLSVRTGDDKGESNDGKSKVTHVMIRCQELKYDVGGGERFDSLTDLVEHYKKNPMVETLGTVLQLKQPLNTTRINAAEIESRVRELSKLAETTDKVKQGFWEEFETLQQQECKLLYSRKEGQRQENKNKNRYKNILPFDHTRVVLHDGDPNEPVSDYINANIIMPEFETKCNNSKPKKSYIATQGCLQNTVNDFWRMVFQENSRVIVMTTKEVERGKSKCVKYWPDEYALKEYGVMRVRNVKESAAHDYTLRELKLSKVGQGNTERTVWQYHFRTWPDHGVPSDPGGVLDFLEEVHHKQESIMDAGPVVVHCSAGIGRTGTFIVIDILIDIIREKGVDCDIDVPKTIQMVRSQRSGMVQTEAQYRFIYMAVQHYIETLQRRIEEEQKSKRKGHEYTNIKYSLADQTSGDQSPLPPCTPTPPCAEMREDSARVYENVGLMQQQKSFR

Q: Which IC50 (SHP2) does the source give for `COc1ccc2ccc(-c3c[nH]c4nc(N5[C@@H]6CC[C@H]5C[C@@H](N)C6)cnc34)c(Cl)c2n1` [Example 27, endo-8-[7-(8-chloro-2-methoxyquinolin-7-yl)-5H-pyrrolo[2,3-b]pyrazin-3-yl]-8-azabicyclo[3.2.1]octan-3-amine, hydrochloride salt] here?
A: 17 nM

Q: And the “Cellular pERK assay (percent at stated concentration)” value (pERK in HCC827 cells; at 10 uM)?
A: 53% at 10 uM

Q: With `COc1cc2c(Cl)c(-c3c[nH]c4nc(N5[C@@H]6CC[C@H]5C[C@@H](N)C6)cnc34)ccc2nc1C` [Example 42, endo-8-[7-(5-chloro-3-methoxy-2-methylquinolin-6-yl)-5H-pyrrolo[2,3-b]pyrazin-3-yl]-8-azabicyclo[3.2.1]octan-3-amine] as the molecule, how does the IC50 (SHP2) read?
A: 17 nM

Q: What about the “Cellular pERK assay (percent at stated concentration)” value (pERK in HCC827 cells; at 1 μM) of the same molecule?
A: 24% at 1 μM
